In patent US9193695B2, “1, 2, 4-triazolone derivative and use thereof as an antagonist on the arginine-vasopressin 1B receptor” (TAISHO PHARMACEUTICAL CO., LTD., priority 2010, dated 2015):
pIC50: −log10 of the molar value. Structures can show the parent of a compound that is named as a salt.

Target: T1, Human V1b receptor (Homo sapiens, UniProt P47901)
T1 sequence (P47901 1-424): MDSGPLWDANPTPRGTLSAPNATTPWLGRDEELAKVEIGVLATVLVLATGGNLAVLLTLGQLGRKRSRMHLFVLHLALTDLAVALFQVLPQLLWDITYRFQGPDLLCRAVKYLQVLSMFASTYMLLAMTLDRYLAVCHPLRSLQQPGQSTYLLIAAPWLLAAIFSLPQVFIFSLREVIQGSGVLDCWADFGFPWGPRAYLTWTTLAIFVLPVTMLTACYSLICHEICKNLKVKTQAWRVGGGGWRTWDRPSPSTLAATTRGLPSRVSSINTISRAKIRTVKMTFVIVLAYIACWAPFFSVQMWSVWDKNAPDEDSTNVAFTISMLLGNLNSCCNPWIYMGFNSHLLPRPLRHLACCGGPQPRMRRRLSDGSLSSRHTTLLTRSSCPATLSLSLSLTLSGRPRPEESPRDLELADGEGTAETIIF
Assay: Binding test for V1b receptor ([3H]AVP displacement, crude membrane preparation)
Set-up: expressed in transfected cells; host or cells: 293FT cells (Invitrogen), transient expression; crude membrane preparation
Settings: [3H]AVP 0.4 to 1 nmol/L; membranes of 293FT cells transiently expressing human V1b receptor; room temperature, 60 minutes
Description: Binding Test for V1b Receptor
Human V1b receptor was transiently expressed in 293FT cells (Invitrogen). The cells were collected and were homogenated in a 15 mmol/L tris-hydrochloric acid buffer (pH 7.4, containing 2 mmol/L magnesium chloride, 0.3 mmol/L ethylenediaminetetracetic acid, and 1 mmol/L glycol ether diaminetetraacetic acid). The resulting homogenate was centrifuged at 50,000×g at 4° C. for 20 minutes. The precipitate was resuspended in a 75 mmol/L tris-hydrochloric acid buffer (pH 7.4, containing 12.5 mmol/L magnesium chloride, 0.3 mmol/L ethylenediaminetetracetic acid, 1 mmol/L glycol ether diamine tetraacetic acid, and 250 mmol/L sucrose) to give a crude membrane preparation, which was stored at −80° C. until the binding test. In the binding test, the crude membrane preparation was diluted with a 50 mmol/L tris-hydrochloric acid buffer (pH 7.4, containing 10 mmol/L magnesium chloride and 0.1% bovine serum albumin), and test compound was serially diluted with DMSO. The diluted crude membrane preparation was incubated with each test compound (final concentration of 0.01 nmol/L to 1 μmol/L) and [^3H]AVP (final concentration: 0.4 to 1 nmol/L) at room temperature for 60 minutes. After the incubation, the mixture was suction filtered through a GF/C filter pretreated with 0.3% polyethyleneimine. The GF/C filter was dried, and a scintillator was added thereto. The radioactivity remaining on the filter was measured using TopCount (PerkinElmer Inc.). The radioactivity in the presence of 10 μmol/L of unlabeled AVP was defined as 0%, and the radioactivity in the absence of unlabeled AVP was defined as 100%. A dose-response curve was plotted from radioactivities in the presence of a test compound at various concentrations, and the 50% inhibitory concentration (IC50 value) of the compound was calculated.

| SMILES | pIC50 |
| --- | --- |
| CC(C)(C)NC(=O)Cn1c(-c2cccc(Cl)c2)nn(-c2ccc(CCN3C4CCC3COC4)cn2)c1=O [Ad-18, N-Tert-Butyl-2-[3-(3-chlorophenyl)-1-{5-[2-(3-oxa-8-azabicyclo[3.2.1]oct-8-yl)ethyl]pyridin-2-yl}-5-oxo-1,5-dihydro-4H-1,2,4-triazol-4-yl]acetamide] | 8.59 |
| CC(C)NC(=O)Cn1c(-c2cccc(Cl)c2)nn(-c2ccc(CCN)cc2)c1=O [Ad-21, 2-[3-(3-Chlorophenyl)-1-[4-(2-aminoethyl)phenyl]-5-oxo-1,5-dihydro-4H-1,2,4-triazol-4-yl]-N-(propan-2-yl)acetamide] | 6.44 |
| COc1cccc(-c2nn(-c3ccc(CCN4C5CCC4COC5)cc3)c(=O)n2CC(=O)NC(C)C)c1 [Ba-3, 2-[3-(3-Methoxyphenyl)-1-{4-[2-(3-oxa-8-azabicyclo[3.2.1]oct-8-yl)ethyl]phenyl}-5-oxo-1,5-dihydro-4H-1,2,4-triazol-4-yl]-N-(propan-2-yl)acetamide] | 8.03 |
| COc1cccc(-c2nn(-c3ccc(CCN4CCOCC4)cn3)c(=O)n2CC(=O)NC(C)(C)C)c1 [Bd-1, N-Tert-Butyl-2-[3-(3-methoxyphenyl)-1-{5-[2-(morpholin-4-yl)ethyl]pyridin-2-yl}-5-oxo-1,5-dihydro-4H-1,2,4-triazol-4-yl]acetamide] | 8.39 |
| COc1cccc(-c2nn(-c3ccc(CCN4C5CCC4COC5)cn3)c(=O)n2CC(=O)NC(C)(C)C)c1 [Bd-2, N-Tert-Butyl-2-[3-(3-methoxyphenyl)-1-{5-[2-(3-oxa-8-azabicyclo[3.2.1]oct-8-yl)ethyl]pyridin-2-yl}-5-oxo-1,5-dihydro-4H-1,2,4-triazol-4-yl]acetamide] | 8.44 |
| COc1cccc(-c2nn(-c3ccc(CC(C)N4C5CCC4COC5)cc3)c(=O)n2CC(=O)NC(C)(C)C)c1 (centres unmarked) [Bd-3, N-Tert-Butyl-2-[3-(3-methoxyphenyl)-1-{4-[2-(3-oxa-8-azabicyclo[3.2.1]oct-8-yl)propyl]phenyl}-5-oxo-1,5-dihydro-4H-1,2,4-triazol-4-yl]acetamide] | 9.68 |
| COc1cccc(-c2nn(-c3ccc(CC(C)N4C5CCC4COC5)cn3)c(=O)n2CC(=O)NC(C)(C)C)c1 (centres unmarked) [Bd-4, N-Tert-Butyl-2-[3-(3-methoxyphenyl)-1-{5-[2-(3-oxa-8-azabicyclo[3.2.1]oct-8-yl)propyl]pyridin-2-yl}-5-oxo-1,5-dihydro-4H-1,2,4-triazol-4-yl]acetamide] | 9.36 |
| COc1cc(-c2nn(-c3ccc(CCN4CCCCC4)cc3)c(=O)n2CC(=O)NC(C)C)ccc1F [Ca-1, 2-[3-(4-Fluoro-3-methoxyphenyl)-5-oxo-1-{4-[2-(piperidin-1-yl)ethyl]phenyl}-1,5-dihydro-4H-1,2,4-triazol-4-yl]-N-(propan-2-yl)acetamide] | 7.59 |
| COc1cc(-c2nn(-c3ccc(CCN4C5CCC4COC5)cc3)c(=O)n2CC(=O)NC(C)C)ccc1F [Ca-5, 2-[3-(4-Fluoro-3-methoxyphenyl)-1-{4-[2-(3-oxa-8-azabicyclo[3.2.1]oct-8-yl)ethyl]phenyl}-5-oxo-1,5-dihydro-4H-1,2,4-triazol-4-yl]-N-(propan-2-yl)acetamide] | 8.36 |
| COc1cc(-c2nn(-c3ccc(CCN4CC5(CCOCC5)C4)cc3)c(=O)n2CC(=O)NC(C)C)ccc1F [Ca-6, 2-[3-(4-Fluoro-3-methoxyphenyl)-1-{4-[2-(7-oxa-2-azaspiro[3.5]non-2-yl)ethyl]phenyl}-5-oxo-1,5-dihydro-4H-1,2,4-triazol-4-yl]-N-(propan-2-yl)acetamide] | 7.00 to 8.00 |
| COc1cc(-c2nn(-c3ccc(CCN4CC=CCC4)cc3)c(=O)n2CC(=O)NC(C)C)ccc1F [Ca-7, 2-[1-{4-[2-(3,6-Dihydropyridin-1(2H)-yl)ethyl]phenyl}-3-(4-fluoro-3-methoxyphenyl)-5-oxo-1,5-dihydro-4H-1,2,4-triazol-4-yl]-N-(propan-2-yl)acetamide] | 7.00 to 8.00 |
| COc1cc(-c2nn(-c3ccc(CCN4CCSCC4)cc3)c(=O)n2CC(=O)NC(C)C)ccc1F [Ca-8, 2-[3-(4-Fluoro-3-methoxyphenyl)-5-oxo-1-{4-[2-(thiomorpholin-4-yl)ethyl]phenyl}-1,5-dihydro-4H-1,2,4-triazol-4-yl]-N-(propan-2-yl)acetamide] | > 8.00 |
| COc1cc(-c2nn(-c3ccc(CCN4CCC(C)CC4)cc3)c(=O)n2CC(=O)NC(C)C)ccc1F [Ca-9, 2-[3-(4-Fluoro-3-methoxyphenyl)-1-{4-[2-(4-methylpiperidin-1-yl)ethyl]phenyl}-5-oxo-1,5-dihydro-4H-1,2,4-triazol-4-yl]-N-(propan-2-yl)acetamide] | 7.00 to 8.00 |
| COc1cc(-c2nn(-c3ccc(CCN4CCC(C#N)CC4)cc3)c(=O)n2CC(=O)NC(C)C)ccc1F [Ca-10, 2-[1-{4-[2-(4-Cyanopiperidin-1-yl)ethyl]phenyl}-3-(4-fluoro-3-methoxyphenyl)-5-oxo-1,5-dihydro-4H-1,2,4-triazol-4-yl]-N-(propan-2-yl)acetamide] | 6.00 to 7.00 |
| COc1cc(-c2nn(-c3ccc(CCN4CCCC(OC)C4)cc3)c(=O)n2CC(=O)NC(C)C)ccc1F (centres unmarked) [Ca-11, 2-[3-(4-Fluoro-3-methoxyphenyl)-1-{4-[2-(3-methoxypiperidin-1-yl)ethyl]phenyl}-5-oxo-1,5-dihydro-4H-1,2,4-triazol-4-yl]-N-(propan-2-yl)acetamide] | 7.00 to 8.00 |
| CCCC1CCN(CCc2ccc(-n3nc(-c4ccc(F)c(OC)c4)n(CC(=O)NC(C)C)c3=O)cc2)CC1 [Ca-12, 2-[3-(4-Fluoro-3-methoxyphenyl)-5-oxo-1-{4-[2-(4-propylpiperidin-1-yl)ethyl]phenyl}-1,5-dihydro-4H-1,2,4-triazol-4-yl]-N-(propan-2-1)acetamide] | 6.00 to 7.00 |
| COc1cc(-c2nn(-c3ccc(CCN4CCC(C(N)=O)CC4)cc3)c(=O)n2CC(=O)NC(C)C)ccc1F [Ca-13, 1-[2-(4-{3-(4-Fluoro-3-methoxyphenyl)-5-oxo-4-[2-oxo-2-(propan-2-ylamino)ethyl]-4,5-dihydro-1H-1,2,4-triazol-1-yl}phenyl)ethyl]piperidine 4-carboxamide] | 6.00 to 7.00 |
| COc1cc(-c2nn(-c3ccc(CCN4CCC(N(C)C)CC4)cc3)c(=O)n2CC(=O)NC(C)C)ccc1F [Ca-14, 2-[1-(4-{2-[4-(Dimethylamino)piperidin-1-yl]ethyl}phenyl)-3-(4-fluoro-3-methoxyphenyl)-5-oxo-1,5-dihydro-4H-1,2,4-triazol-4-yl]-N-(propan-2-yl)acetamide] | 6.00 to 7.00 |
| COc1cc(-c2nn(-c3ccc(CCN4CCC5CCCCC5C4)cc3)c(=O)n2CC(=O)NC(C)C)ccc1F (centres unmarked) [Ca-15, 2-[3-(4-Fluoro-3-methoxyphenyl)-1-{4-[2-(octahydroisoquinolin-2(1H)-yl)ethyl]phenyl}-5-oxo-1,5-dihydro-4H-1,2,4-triazol-4-yl]-N-(propan-2-yl)acetamide] | 7.00 to 8.00 |
| COc1cc(-c2nn(-c3ccc(CCN4CCC(F)CC4)cc3)c(=O)n2CC(=O)NC(C)C)ccc1F [Ca-16, 2-[3-(4-Fluoro-3-methoxyphenyl)-1-{4-[2-(4-fluoropiperidin-1-yl)ethyl]phenyl}-5-oxo-1,5-dihydro-4H-1,2,4-triazol-4-yl]-N-(propan-2-yl)acetamide trifluoroacetate] | 7.00 to 8.00 |
| COc1cc(-c2nn(-c3ccc(CCN4CCC(NC(C)=O)CC4)cc3)c(=O)n2CC(=O)NC(C)C)ccc1F [Ca-17, 2-[1-(4-{2-[4-(Acetylamino)piperidin-1-yl]ethyl}phenyl)-3-(4-fluoro-3-methoxyphenyl)-5-oxo-1,5-dihydro-4H-1,2,4-triazol-4-yl]-N-(propan-2-yl)acetamide] | 6.00 to 7.00 |
| COc1cc(-c2nn(-c3ccc(CCN4CCC(F)(F)CC4)cc3)c(=O)n2CC(=O)NC(C)C)ccc1F [Ca-18, 2-[1-{4-[2-(4,4-Difluoropiperidin-1-yl)ethyl]phenyl}-3-(4-fluoro-3-methoxyphenyl)-5-oxo-1,5-dihydro-4H-1,2,4-triazol-4-yl]-N-(propan-2-yl)acetamide trifluoroacetate] | 7.00 to 8.00 |
| COc1cc(-c2nn(-c3ccc(CCN4CCC(C(F)(F)F)CC4)cc3)c(=O)n2CC(=O)NC(C)C)ccc1F [Ca-19, 2-[3-(4-Fluoro-3-methoxyphenyl)-5-oxo-1-(4-{2-[4-(trifluoromethyl)piperidin-1-yl]ethyl}phenyl)-1,5-dihydro-4H-1,2,4-triazol-4-yl]-N-(propan-2-yl)acetamide trifluoroacetate] | 6.00 to 7.00 |
